Assay results: PubChem BioAssay (NCI)
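Method: 48-hour compound exposure of cells in 96-well plates, five concentrations, linear interpolation of endpoints. The concentration for full growth arrest is given as TGI.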

Columns and labels:
Assay in all cases: NCI-60 cell line screen, 48 h
786-0 renal = system: 786-0 renal
A498 renal = system: A498 renal
A549 NSCLC = system: A549 NSCLC
ACHN renal = system: ACHN renal
BT-549 breast = system: BT-549 breast
CAKI-1 renal = system: CAKI-1 renal
CCRF-CEM leukemia = system: CCRF-CEM leukemia
COLO 205 colon = system: COLO 205 colon
DU-145 prostate = system: DU-145 prostate
EKVX NSCLC = system: EKVX NSCLC
HCC-2998 colon = system: HCC-2998 colon
HCT-116 colon = system: HCT-116 colon
HCT-15 colon = system: HCT-15 colon
HL-60(TB) leukemia = system: HL-60(TB) leukemia
HOP-62 NSCLC = system: HOP-62 NSCLC
HOP-92 NSCLC = system: HOP-92 NSCLC
HS 578T breast = system: HS 578T breast
HT29 colon = system: HT29 colon
IGROV1 ovarian = system: IGROV1 ovarian
K-562 leukemia = system: K-562 leukemia
KM12 colon = system: KM12 colon
LOX IMVI melanoma = system: LOX IMVI melanoma
M14 melanoma = system: M14 melanoma
MCF7 breast = system: MCF7 breast
MDA-MB-231 breast = system: MDA-MB-231 breast
MDA-MB-435 = system: MDA-MB-435
MDA-N = system: MDA-N
MOLT-4 leukemia = system: MOLT-4 leukemia
NCI-H226 lung = system: NCI-H226 lung
NCI-H23 lung = system: NCI-H23 lung
NCI-H460 lung = system: NCI-H460 lung
NCI-H522 lung = system: NCI-H522 lung
NCI/ADR-RES ovarian = system: NCI/ADR-RES ovarian
OVCAR-3 ovarian = system: OVCAR-3 ovarian
OVCAR-4 ovarian = system: OVCAR-4 ovarian
OVCAR-5 ovarian = system: OVCAR-5 ovarian
OVCAR-8 ovarian = system: OVCAR-8 ovarian
PC-3 prostate = system: PC-3 prostate
RPMI-8226 leukemia = system: RPMI-8226 leukemia
RXF 393 renal = system: RXF 393 renal
SF-268 CNS = system: SF-268 CNS
SF-295 CNS = system: SF-295 CNS
SF-539 CNS = system: SF-539 CNS
SK-MEL-2 melanoma = system: SK-MEL-2 melanoma
SK-MEL-28 melanoma = system: SK-MEL-28 melanoma
SK-MEL-5 melanoma = system: SK-MEL-5 melanoma
SK-OV-3 ovarian = system: SK-OV-3 ovarian
SN12C renal = system: SN12C renal
SNB-19 CNS = system: SNB-19 CNS
SNB-75 CNS = system: SNB-75 CNS
SR leukemia = system: SR leukemia
SW-620 colon = system: SW-620 colon
T-47D breast = system: T-47D breast
TK-10 renal = system: TK-10 renal
U251 CNS = system: U251 CNS
UACC-257 melanoma = system: UACC-257 melanoma
UACC-62 melanoma = system: UACC-62 melanoma
UO-31 renal = system: UO-31 renal
MALME-3M melanoma = system: MALME-3M melanoma

Work on `O=C1Nc2ccccc2/C1=C/c1ccccc1` yielded a TGI (786-0 renal) of 28.4 µM, a TGI (A498 renal) of 30.5 µM and a TGI (A549 NSCLC) of 90.7 µM. It also gave a TGI (ACHN renal) greater than 100 µM, a TGI (BT-549 breast) of 31.2 µM and a TGI (CAKI-1 renal) greater than 100 µM. It also gave a TGI (CCRF-CEM leukemia) of 71.6 µM, a TGI (COLO 205 colon) of 30.9 µM and a TGI (DU-145 prostate) of 27.4 µM. For the same compound, the TGI (EKVX NSCLC) was 28.8 µM, the TGI (HCC-2998 colon) was 30.1 µM and the TGI (HCT-116 colon) was 27 µM. It also gave a TGI (HCT-15 colon) of 35.4 µM, a TGI (HL-60(TB) leukemia) of 43.5 µM and a TGI (HOP-62 NSCLC) of 38.5 µM. It also gave a TGI (HOP-92 NSCLC) of 25.5 µM, a TGI (HS 578T breast) of 91.8 µM and a TGI (HT29 colon) of 48 µM. It also gave a TGI (IGROV1 ovarian) of 33.1 µM, a TGI (K-562 leukemia) greater than 100 µM and a TGI (KM12 colon) of 33.2 µM. The TGI (LOX IMVI melanoma) was 27.6 µM, the TGI (M14 melanoma) was 30.6 µM and the TGI (MCF7 breast) was 23.7 µM. For the same compound, the TGI (MDA-MB-231 breast) was 46.8 µM, the TGI (MDA-MB-435) was 33.2 µM and the TGI (MDA-N) was 40.7 µM. It also gave a TGI (MOLT-4 leukemia) of 57.5 µM, a TGI (NCI-H226 lung) of 37.4 µM and a TGI (NCI-H23 lung) of 42.7 µM. For the same compound, the TGI (NCI-H460 lung) was 38.5 µM, the TGI (NCI-H522 lung) was 33.9 µM and the TGI (NCI/ADR-RES ovarian) was 70.6 µM. It also gave a TGI (OVCAR-3 ovarian) of 33.7 µM, a TGI (OVCAR-4 ovarian) of 83 µM and a TGI (OVCAR-5 ovarian) of 34.5 µM. It also gave a TGI (OVCAR-8 ovarian) of 66.1 µM, a TGI (PC-3 prostate) of 31.1 µM and a TGI (RPMI-8226 leukemia) of 77.7 µM. For the same compound, the TGI (RXF 393 renal) was 22.9 µM, the TGI (SF-268 CNS) was 35.1 µM and the TGI (SF-295 CNS) was 36.1 µM. The TGI (SF-539 CNS) was 42.6 µM, the TGI (SK-MEL-2 melanoma) was 28.5 µM and the TGI (SK-MEL-28 melanoma) was 44.4 µM. The TGI (SK-MEL-5 melanoma) was 26.1 µM, the TGI (SK-OV-3 ovarian) was 98.3 µM and the TGI (SN12C renal) was 28.5 µM. It also gave a TGI (SNB-19 CNS) of 30 µM, a TGI (SNB-75 CNS) of 33.8 µM and a TGI (SR leukemia) of 48.1 µM. It also gave a TGI (SW-620 colon) greater than 100 µM, a TGI (T-47D breast) of 41.9 µM and a TGI (TK-10 renal) of 45.1 µM. The TGI (U251 CNS) was 30 µM, the TGI (UACC-257 melanoma) was 29 µM and the TGI (UACC-62 melanoma) was 30.7 µM. It also gave a TGI (UO-31 renal) of 25.3 µM.

For `Oc1ccc2ccccc2c1C(c1ccc(Cl)cc1)c1c(O)ccc2ccccc12`, the TGI (786-0 renal) was 12.4 µM, the TGI (A498 renal) was 9.36 µM and the TGI (A549 NSCLC) was 10.8 µM. For the same compound, the TGI (ACHN renal) was 15.4 µM, the TGI (BT-549 breast) was 14.1 µM and the TGI (CAKI-1 renal) was 9.08 µM. The TGI (CCRF-CEM leukemia) was 7.46 µM, the TGI (COLO 205 colon) was 4.49 µM and the TGI (DU-145 prostate) was 12.4 µM. It also gave a TGI (EKVX NSCLC) of 7.58 µM, a TGI (HCC-2998 colon) of 6.34 µM and a TGI (HCT-116 colon) of 9.36 µM. It also gave a TGI (HCT-15 colon) greater than 30.2 µM, a TGI (HL-60(TB) leukemia) of 4.91 µM and a TGI (HOP-62 NSCLC) of 16 µM. The TGI (HOP-92 NSCLC) was 4.89 µM, the TGI (HS 578T breast) was 8.62 µM and the TGI (HT29 colon) was 9.78 µM. The TGI (IGROV1 ovarian) was 7.65 µM, the TGI (K-562 leukemia) was 10.6 µM and the TGI (KM12 colon) was 7.87 µM. It also gave a TGI (LOX IMVI melanoma) of 8.11 µM, a TGI (M14 melanoma) of 15.2 µM and a TGI (MALME-3M melanoma) of 6.71 µM. The TGI (MCF7 breast) was 11.5 µM, the TGI (MDA-MB-231 breast) was 9.24 µM and the TGI (MDA-MB-435) was 9.49 µM. For the same compound, the TGI (MDA-N) was 12.2 µM, the TGI (MOLT-4 leukemia) was 17.5 µM and the TGI (NCI-H23 lung) was 19.1 µM. The TGI (NCI-H460 lung) was 11.3 µM, the TGI (NCI-H522 lung) was 5.17 µM and the TGI (NCI/ADR-RES ovarian) was 9.46 µM. For the same compound, the TGI (OVCAR-3 ovarian) was 9.06 µM, the TGI (OVCAR-4 ovarian) was 11.2 µM and the TGI (OVCAR-5 ovarian) was 12 µM. For the same compound, the TGI (OVCAR-8 ovarian) was 19.9 µM, the TGI (PC-3 prostate) was 7.7 µM and the TGI (RPMI-8226 leukemia) was 5.21 µM. For the same compound, the TGI (RXF 393 renal) was 8.28 µM, the TGI (SF-268 CNS) was 7.26 µM and the TGI (SF-295 CNS) was 12.7 µM. It also gave a TGI (SF-539 CNS) of 31.4 µM, a TGI (SK-MEL-2 melanoma) of 6.71 µM and a TGI (SK-MEL-28 melanoma) of 15.9 µM. It also gave a TGI (SK-MEL-5 melanoma) of 6.93 µM, a TGI (SK-OV-3 ovarian) of 19.9 µM and a TGI (SN12C renal) of 9.72 µM. For the same compound, the TGI (SNB-19 CNS) was 19 µM, the TGI (SNB-75 CNS) was 10.8 µM and the TGI (SR leukemia) was greater than 25.7 µM. For the same compound, the TGI (SW-620 colon) was 18.4 µM, the TGI (T-47D breast) was 12.3 µM and the TGI (TK-10 renal) was 11.1 µM. For the same compound, the TGI (U251 CNS) was 12.9 µM, the TGI (UACC-257 melanoma) was 15.9 µM and the TGI (UACC-62 melanoma) was 15.1 µM. The TGI (UO-31 renal) was 10.6 µM.
